“Also recorded” adds a separate entry of the source. Where two headings read alike, the source gives them in different places.
Experiments:
[1] = test system: P30 (H460 cells selected at 30 nM paclitaxel); assay: In vitro cytotoxicity assay of resistant cell line P30; type: cell-based, human; settings: for IC50: P30 cells (H460 selected at 30 nM paclitaxel), MTT after 48 h; for P30 Resistance Factor: P30 cells relative to parental H460
Procedure: (§1) A panel of cells lines obtained from American Type Culture Collection (Rockville, Md., USA) was initially assayed against CA-4 to screen for drug sensitivity. […] H460 cells were grown and maintained in RPMI-1640 supplemented with penicillin-streptomycin, Fungizone® and 10% heat inactivated fetal bovine serum (Invitrogen, Carlsbad, Calif., USA) and maintained at 37° C. humidified 5% CO2 atmosphere. H460 parental cell line was selected for resistance to CA-4, paclitaxel or vinblastine by incubation with stepwise increments of each drug, beginning at 2 nM. Cells were treated with the drugs for 24 h, once a week, and every 2-3 weeks, drug dose was increased by 2 nM increments until 30 nM drug resistance was reached. To select non-MDR resistant cell lines, cells were evolved in the presence of verapamil, an inhibitor of P-glycoprotein (P-gp) drug efflux pump that produces a MDR phenotype. Resistance was maintained by acute 24 h exposure to the corresponding drug and verapamil once a month. All cells used for the experiments were grown logarithmically in drug-free medium at least a week before experiments.
(§2) Cytoxicity assays was assessed using a modified MTT assay (Mosmann, 1983). MTT (3-(4,5-dimethylthiazol-2-yl)-2,5-diphenyl tetrazolium bromide, MTT) was purchased from Sigma (St. Louis, Mo., USA). For each drug treatment, triplicate wells were seeded (5.0×10^3/well) and conditioned overnight. Drugs were prepared by serial dilution with RPMI media and added to the corresponding wells. After 48 h, the MTT assay was performed. Percentage survival was calculated as the OD560 of the treated sample divided by the OD560 of the untreated control cell line. Cell lines were tested with cisplatin to test for non-MDR phenotype.
(§3) C30, P30, and V30 cell lines represent H460 parental cells selected at 30 nM CA-4, paclitaxel, and vinblastine, respectively. […] Cisplatin, an anti-cancer agent with a non-tubulin-binding mode of action was assayed against the cell lines to test for […].

[2] = test system: C30 (H460 cells selected at 30 nM CA-4); assay: In vitro cytotoxicity assay of resistant cell line C30; type: cell-based, human; settings: for C30 Resistance Factor: C30 cells relative to parental H460; for IC50: C30 cells (H460 selected at 30 nM CA-4), MTT after 48 h
Procedure: as §1, §2, §3

[3] = test system: V30 (H460 cells selected at 30 nM vinblastine); assay: In vitro cytotoxicity assay of resistant cell line V30; type: cell-based, human; settings: for IC50: V30 cells (H460 selected at 30 nM vinblastine), MTT after 48 h; for V30 Resistance Factor: V30 cells relative to parental H460
Procedure: as §1, §2, §3

[4] = test system: NCI-H460; assay: In vitro cytotoxicity (modified MTT) assay, H460 parental; type: cell-based, human; settings: MTT after 48 h
Procedure: (§4) A panel of cells lines obtained from American Type Culture Collection (Rockville, Md., USA) was initially assayed against CA-4 to screen for drug sensitivity. The human non-small cell lung carcinoma (NSCLC), NCI-H460, was selected for resistance based on significant cytotoxicity. H460 cells were grown and maintained in RPMI-1640 supplemented with penicillin-streptomycin, Fungizone® and 10% heat inactivated fetal bovine serum (Invitrogen, Carlsbad, Calif., USA) and maintained at 37° C. humidified 5% CO2 atmosphere. H460 parental cell line was selected for resistance to CA-4, paclitaxel or vinblastine by incubation with stepwise increments of each drug, beginning at 2 nM. Cells were treated with the drugs for 24 h, once a week, and every 2-3 weeks, drug dose was increased by 2 nM increments until 30 nM drug resistance was reached. To select non-MDR resistant cell lines, cells were evolved in the presence of verapamil, an inhibitor of P-glycoprotein (P-gp) drug efflux pump that produces a MDR phenotype. Resistance was maintained by acute 24 h exposure to the corresponding drug and verapamil once a month. All cells used for the experiments were grown logarithmically in drug-free medium at least a week before experiments.
as §2
To select a moderately sensitive cell line for drug-resistance, a panel of susceptible tumor cell lines was screened for CA-4 cytotoxicity. Table 1 depicts the average in vitro cytotoxicity (IC50) values for three independent experiments with each experiment run in triplicate.

[5] = test system: MOLT4; assay: In vitro cytotoxicity (modified MTT) assay, MOLT4; type: cell-based; settings: MOLT4, Acute Lymphoblastic Leukemia; MTT after 48 h; average of three independent experiments in triplicate
Procedure: as §4, with “All cells used for the experiments were grown logarithmically in drug-free medium at least a week before experiments.” left out
(§5) Cytoxicity assays was assessed using a modified MTT assay (Mosmann, 1983). […] Percentage survival was calculated as the OD560 of the treated sample divided by the OD560 of the untreated control cell line. […]

[6] = test system: HT29; assay: In vitro cytotoxicity (modified MTT) assay, HT29; type: cell-based; settings: HT29, Colorectal Adenocarcinoma; MTT after 48 h; average of three independent experiments in triplicate
Procedure: as §4, with “All cells used for the experiments were grown logarithmically in drug-free medium at least a week before experiments.” left out
as §5

[7] = test system: MCF7; assay: In vitro cytotoxicity (modified MTT) assay, MCF7; type: cell-based; settings: MCF7, Mammary Gland Adenocarcinoma; MTT after 48 h; average of three independent experiments in triplicate
Procedure: as §4, with “All cells used for the experiments were grown logarithmically in drug-free medium at least a week before experiments.” left out
as §5

[8] = test system: CEM; assay: In vitro cytotoxicity (modified MTT) assay, CEM; type: cell-based; settings: Acute Lymphoblastic Leukemia, MTT after 48 h, average of three independent experiments in triplicate
Procedure: as §4, with “All cells used for the experiments were grown logarithmically in drug-free medium at least a week before experiments.” left out
as §5

[9] = test system: DU145; assay: In vitro cytotoxicity (modified MTT) assay, DU145; type: cell-based; settings: DU145, Prostate Carcinoma; MTT after 48 h; average of three independent experiments in triplicate
Procedure: as §4, with “All cells used for the experiments were grown logarithmically in drug-free medium at least a week before experiments.” left out
as §5

[10] = test system: BXPC3; assay: In vitro cytotoxicity (modified MTT) assay, BXPC3; type: cell-based; settings: BXPC3, Pancreatic Adenocarcinoma; MTT after 48 h; average of three independent experiments in triplicate
Procedure: as §4, with “All cells used for the experiments were grown logarithmically in drug-free medium at least a week before experiments.” left out
as §5

[11] = Homo sapiens, NCI-H460, H460 parental cells, Table 2, read-out: H460 wild-type IC50
[12] = H460 parental cells, Table 2, read-out: H460 wild-type IC50

Structure (SMILES) | IC50 ([1]; Homo sapiens, NCI-H460) | P30 Resistance Factor [1] | C30 Resistance Factor [2] | IC50 ([2]; Homo sapiens, NCI-H460) | IC50 ([3]; Homo sapiens, NCI-H460) | V30 Resistance Factor [3] | IC50 [4, 11] | IC50 [1] | IC50 [2] | IC50 [3] | IC50 [4, 12] | also measured
CC(=O)O[C@H]1C(=O)[C@@]2(C)[C@H]([C@H](OC(=O)c3ccccc3)[C@]3(O)C[C@H](OC(=O)[C@H](O)[C@@H](NC(=O)c4ccccc4)c4ccccc4)C(C)=C1C3(C)C)[C@]1(OC(C)=O)CO[C@@H]1C[C@@H]2O [Paclitaxel] | 77 ± 4.9 nM | 9.6 ± 1.0 | 9.9 ± 0.6 | 80 ± 2 nM | 87 ± 3.6 nM | 10.8 ± 1.0 | 8.1 ± 0.4 nM | – | – | – | – | P30 Resistance Factor ([1]; listed as paclitaxel): tenfold; C30 Resistance Factor ([2]; listed as paclitaxel): tenfold; V30 Resistance Factor ([3]; listed as paclitaxel): eleven fold; also recorded: tenfold
COc1ccc(/C=C\c2cc(OC)c(OC)c(OC)c2)cc1O [CA-4, Combretastatin A-4] | – | – | – | – | – | – | – | 8.5 ± 0.2 nM | 19 nM | 9.2 ± 0.6 nM | 7 ± 0.6 nM | IC50 [5]: 4.1 nM; IC50 [6]: 55100 nM; IC50 [7]: 165000 nM; IC50 [8]: 0.25 nM; IC50 [9]: 7.7 nM; IC50 ([4]; H460, Non-Small Cell Lung Carcinoma, Table 1 screen, average of three independent experiments in triplicate, read-out: IC50): 7.3 nM; IC50 [10]: 57000 nM
CC[C@]1(O)C[C@@H]2CN(CCc3c([nH]c4ccccc34)[C@@](C(=O)OC)(c3cc4c(cc3OC)N(C)[C@H]3[C@@](O)(C(=O)OC)[C@H](OC(C)=O)[C@]5(CC)C=CCN6CC[C@]43[C@@H]65)C2)C1 [Vinblastine] | 15.7 ± 4.2 nM | 2.7 ± 0.7 | 1.0 ± 0.0 | 6 ± 0.3 nM | 26.3 ± 2.1 nM | 4.5 ± 0.4 | 5.9 ± 0.1 nM | – | – | – | – | P30 Resistance Factor ([1]; listed as vinblastine): threefold; C30 Resistance Factor ([2]; listed as vinblastine): negligibly resistant; V30 Resistance Factor ([3]; listed as vinblastine): fivefold
N.N.[Cl][Pt][Cl] [Cisplatin] | – | – | – | – | – | – | – | 25.3 ± 3.1 nM | 16.7 ± 3.2 nM | 21.7 ± 0.6 nM | 20 ± 2.6 nM | –

— patent US20050272824A1, “Methods for monitoring combretastatin resistance” (priority 2004, published 2005)
